Source: patent publication US20220304309A1, “IRON COMPLEXES AND USES THEREFOR” (priority 2019, published 2022)
“Also recorded” adds a separate entry of the source. Read-outs that look alike come from different tables or passages of the source.

Columns and labels:
spores of B. subtilis = test: Decontamination of surfaces contaminated with B. subtilis spores; type: cell-based, Bacillus subtilis; settings: swabbing or spraying, optionally mixed with ascorbate and/or hydrogen peroxide
Procedure: In additional experiments, surfaces that have been intentionally contaminated with spores of B. subtilis are wiped or sprayed with solutions of FDP (e.g., 1 mM, 2 mM, 3 mM, 4 mM, 5 mM, 6 mM, 7 mM, 8 mM, 9 mM, 10 mM, 12.5 mM, 15 mM, 20 mM, 25 mM, 50 mM, 75 mM 100 mM or more); optionally including ascorbate (e.g. 10 mM) and/or hydrogen peroxide at a concentration of, e.g., 1 mM or less, 2 mM or less, 3 mM or less, 4 mM or less, 5 mM or less, 6 mM or less, 7 mM or less, 8 mM or less, 9 mM or less, 10 mM or less, 12.5 mM or less, 15 mM or less, 20 mM or less, 25 mM or less, 30 mM or less, 40 mM or less, 50 mM or less, 60 mM or less, 70 mM or less, 80 mM or less, 90 mM or less, 100 mM or less, 125 mM or less, 150 mM or less, 175 mM or less, or 200 mM or less. The surfaces are then swabbed, the swabs are suspended in water or medium, and CFU are determined by plating aliquots of serial dilutions of the liquid in which the swabs were suspended.

[1] = Total, ferrous and ferric iron content of the complexes immediately after preparation (1,10-phenanthroline); settings: 50 mM solution; for Ferric iron: total minus ferrous
[2] = Stability of ferrous iron complexes in solution over 180 days; settings: for Ferrous iron / Total iron: room temperature in the dark; for Stability of solutions of the complex: stored at ambient temperature (TFDC in the dark)
[3] = system: Pectobacterium carotovorum subsp. brasiliense (Pcb); test: In planta trial on Pcb-infiltrated potato tubers; settings: weekly foliar spray or root drench
C. liberibacter spp = type: in vivo, rough lemon trees; settings: 50 μM, foliar or root drench, every three days over three months
Bacillus subtilis = test: Bactericidal and sporicidal activity on Bacillus subtilis cells or spores suspended in water; type: cell-based; settings: increasing concentrations and exposure times; 10 mM sodium ascorbate, sub-inhibitory hydrogen peroxide
Procedure: Because of its activity as a Fenton reagent, FDP produces reactive oxygen species (e.g. hydroxyl radicals, superoxide radicals) that are toxic to bacterial spores and spore-forming bacteria. […] After exposure to FDP for various periods of time, the number of viable colony-forming units is determined by plating aliquots of serial dilutions of the solutions.

X. campestris = settings: for A600: 36 hours at 28° C.
[4] = Fenton activity test with H2O2 and methylene blue
[5] = Reduction of ferric iron in the ferric tri-pyruvate complex over 10 days; type: physicochemical
Procedure: A 50 mM solution of the ferric tri-pyruvate complex was prepared as described in Example 5. The stability of the complex was measured by determining the total iron, ferrous iron and ferric iron over the course of 10 days.

[6] = 60 Days after complex formation
[7] = 180 Days after complex formation
[8] = 1 ml 50 mM complex + 1 ml 40% H2O2, 0.1% (w/v) methylene blue, 1 hour at ambient temperature
[9] = 0 days after complex formation, 50 mM solution
[10] = 1 day after complex formation, 50 mM solution
[11] = 7 days after complex formation, 50 mM solution
[12] = 10 days after complex formation, 50 mM solution

## ferrous di-pyruvate
Spores of B. subtilis
  Sterilization of surfaces contaminated with B. subtilis spores: sterilizes the surfaces
[1]
  Ferrous iron: 49.5 mM
  Total iron: 50 mM
  Ferric iron: <1 mM
[2]; 1 Day after complex formation
  Ferrous iron: 99 mM
  Total iron: 100 mM
[2]; [6]
  Ferrous iron: 97 mM
  Total iron: 100 mM
[2]; [7]
  Ferrous iron: 98 mM
  Total iron: 100 mM
[2]
  Stability of solutions of the complex: stable for up to six months
[3]
  Symptoms of Pcb infection in potato plants: reduce symptom of Pcb infection
C. liberibacter spp
  Number of leaf and root samples containing C. liberibacter spp nucleic acid (PCR): reduces the number of leaf and root samples containing C. liberibacter spp nucleic acid
  Number of plants showing signs of chlorosis: reduces the number of plants showing signs of chlorosis
Bacillus subtilis
  Cell killing of B. subtilis cells or spores (viable CFU): higher levels of cell killing
X. campestris; Table 5, most pronounced after preincubation with ascorbate and copper
  Effect on growth of X. campestris (in words): able to block the growth of X. campestris
X. campestris; Table 6, most pronounced after preincubation with ascorbate and copper
  Killing of X. campestris (in words): able to kill X. campestris
X. campestris; no preincubation, addition 5 mM ascorbate + 5 μM Cu(II) + 0.25 mM FDP, 36 hour treatment
  CFU: 2.28 × 10^9 CFU per ml
X. campestris; no preincubation, addition 5 mM ascorbate + 5 μM Cu(II) + 0.25 mM FDP
  A600: 0.420
X. campestris; no preincubation, addition 5 mM ascorbate + 0.25 mM FDP
  A600: 0.447
[4]; [8]
  Fenton activity (loss of blue color, brown precipitate): exhibited Fenton activity
[4]; 1 ml 50 mM complex + 1 ml 40% H2O2, 0.1% (w/v) methylene blue, 1 hour at ambient temperature, listed as ferrous di-pyruvate complex
  Fenton activity (loss of blue color, brown precipitate): significant Fenton activity

## O=C1O[C@H]([C@@H](O)CO)C([O-])=C1O.[Na+] [ascorbate, sodium ascorbate, reference compound]
X. campestris; no preincubation, addition 5 mM ascorbate
  A600: 0.512

## O=C([O-])CC(O)(CC(=O)[O-])C(=O)[O-].O=C([O-])CC(O)(CC(=O)[O-])C(=O)[O-].[Fe+2].[Fe+2].[Fe+2] [tri-ferrous di-citrate]
[1]
  Ferrous iron: 49.7 mM
  Total iron: 50 mM
  Ferric iron: <1 mM
[2]
  Light sensitivity on storage: must be stored in the dark to prevent autodegradation
  Stability of solutions of the complex: stable for up to six months
[2]; 1 Day after complex formation
  Ferrous iron: 100 mM
  Total iron: 100 mM
[2]; [6]
  Ferrous iron: 99 mM
  Total iron: 100 mM
[2]; [7]
  Ferrous iron: 98 mM
  Total iron: 100 mM
[3]
  Symptoms of Pcb infection in potato plants: reduce symptom of Pcb infection
[4]; [8]
  Fenton activity (loss of blue color, brown precipitate): exhibited Fenton activity
[4]; 1 ml 50 mM complex + 1 ml 40% H2O2, 0.1% (w/v) methylene blue, 1 hour at ambient temperature, listed as tri-ferrous di-citrate complex
  Fenton activity (loss of blue color, brown precipitate): significant Fenton activity

## mono-ferrous mono-citrate [mono-ferrous mono-citrate complex, reference compound]
[4]; [8]
  Fenton activity (loss of blue color, brown precipitate): little to no Fenton activity

## ferric tri-pyruvate [ferric tri-pyruvate complex]
[5]; [9]
  Ferric iron: >49 mM
  Ferrous iron: <1 mM
  Total iron: 50 mM
[5]; 50 mM solution
  Oxidation state of the iron upon formation of the complex: essentially all the iron was in the ferric oxidation state
[5]; [10]
  Ferric iron: 39 mM
  Ferrous iron: 11 mM
  Total iron: 50 mM
[5]; [11]
  Ferric iron: 2 mM
  Ferrous iron: 48 mM
  Total iron: 50 mM
[5]; [12]
  Ferric iron: 2 mM
  Ferrous iron: 48 mM
  Total iron: 50 mM
[5]; after one week (7-day period)
  Reduction of ferric ions to ferrous: essentially all iron is in the ferrous oxidation state; also recorded: essentially all the ferric iron was reduced to the ferrous oxidation state
[5]; within one day after formation of the complex, ambient conditions
  Reduction of ferric ions to ferrous: approximately one-fifth of ferric ions have been reduced to ferrous
[4]; 14-day old reduced complex, 50 mM + 40% H2O2, 1 hour at ambient temperature
  Fenton activity (loss of blue color, brown precipitate): significant Fenton activity

## mono-ferrous di-citrate [mono-ferrous di-citrate complex, reference compound]
[4]; [8]
  Fenton activity (loss of blue color, brown precipitate): little to no Fenton activity
